± gives the uncertainty stated by the source.
Experiment: xn = mol fraction of the nth substance listed

CC[n+]1ccn(C)c1.O=S(=O)([O-])C(F)(F)F + O
101 kPa
Conditions | electrical conductivity [S/m] | viscosity [mPa·s]
293.15 K, x1 = 0.004 | – | 1.07 ± 0.02
293.15 K, x1 = 0.029 | – | 1.67 ± 0.04
293.15 K, x1 = 0.041 | – | 2.01 ± 0.04
293.15 K, x1 = 0.463 | – | 13.6 ± 0.3
297.45 K, x2 = 0.304 | 1.17 ± 0.02 | –
298.15 K, x1 = 0.005 | 1.4 ± 0.1 | 0.99 ± 0.02
298.15 K, x1 = 0.012 | 2.3 ± 0.1 | 1.11 ± 0.02
298.15 K, x1 = 0.017 | – | 1.23 ± 0.03
298.15 K, x1 = 0.041 | – | 1.78 ± 0.04
298.15 K, x1 = 0.064 | 4.4 ± 0.2 | 2.17 ± 0.05
298.15 K, x1 = 0.137 | 4.6 ± 0.2 | 3.71 ± 0.08
303.15 K, x1 = 0.008 | – | 0.92 ± 0.02
303.15 K, x1 = 0.017 | – | 1.09 ± 0.02
303.15 K, x1 = 0.137 | – | 3.27 ± 0.07
303.15 K, x1 = 0.391 | – | 8.23 ± 0.17
303.65 K, x2 = 0.304 | 1.46 ± 0.03 | –
305.35 K, x2 = 0.304 | 1.58 ± 0.03 | –
313.15 K, x1 = 0.004 | – | 0.7 ± 0.02
313.15 K, x1 = 0.017 | 3.9 ± 0.2 | 0.89 ± 0.02
313.15 K, x1 = 0.029 | 5.1 ± 0.2 | 1.05 ± 0.02
313.15 K, x1 = 0.137 | 6.3 ± 0.3 | 2.58 ± 0.05

COCC[n+]1ccn(C)c1.C[C@@H](O)[C@H](N)C(=O)[O-] + O
100 kPa
Conditions | viscosity [mPa·s]
303.15 K, x1 = 0.5348 | 557 ± 45
303.15 K, x1 = 0.6571 | 581 ± 48
308.15 K, x1 = 0.3313 | 297 ± 18
318.15 K, x1 = 0.5348 | 163.8 ± 6.7
323.15 K, x1 = 0.4476 | 114.9 ± 3.4
323.15 K, x1 = 0.5348 | 120.9 ± 3.8
323.15 K, x1 = 0.6571 | 126.6 ± 4.2

CCCC[P+](CCCC)(CCCC)CCCC.[Br-] + OCC(O)CO
101.3 kPa, x1 = 0.333
Conditions | viscosity [mPa·s]
293.15 K | 468 ± 51
298.15 K | 329 ± 34
303.15 K | 235 ± 24
308.15 K | 172 ± 17
313.15 K | 116 ± 12
318.15 K | 97.1 ± 9.8
323.15 K | 68.4 ± 6.9

Oc1cccnc1 + CCCC[n+]1ccn(C)c1.[Cl-]
Conditions | viscosity [mPa·s]
293.15 K, 100 kPa, x1 = 0.333 | 179.1 ± 8.9

C[n+]1ccn(CCCC#N)c1.O=S(=O)([N-]S(=O)(=O)C(F)(F)F)C(F)(F)F + O=C1CCCO1
electrical conductivity [S/m], 100 kPa
Conditions | x1 = 0.1003 | x1 = 0.2005 | x1 = 0.3003 | x1 = 0.4005 | x1 = 0.4997 | x1 = 0.6003 | x1 = 0.7001 | x1 = 0.8002 | x1 = 0.9003 | x1 = 1
288.15 K | 0.668 ± 0.01 | 0.774 ± 0.01 | 0.578 ± 0.01 | 0.43 ± 0.01 | 0.309 ± 0.01 | 0.225 ± 0.01 | 0.151 ± 0.01 | 0.11 ± 0.01 | 0.077 ± 0.01 | 0.061 ± 0.01
293.15 K | 0.731 ± 0.01 | 0.838 ± 0.01 | 0.635 ± 0.01 | 0.482 ± 0.01 | 0.353 ± 0.01 | 0.266 ± 0.01 | 0.186 ± 0.01 | 0.141 ± 0.01 | 0.101 ± 0.01 | 0.083 ± 0.01
298.15 K | 0.794 ± 0.01 | 0.908 ± 0.01 | 0.696 ± 0.01 | 0.54 ± 0.01 | 0.405 ± 0.01 | 0.312 ± 0.01 | 0.226 ± 0.01 | 0.176 ± 0.01 | 0.132 ± 0.01 | 0.112 ± 0.01
303.15 K | 0.862 ± 0.01 | 0.976 ± 0.01 | 0.76 ± 0.01 | 0.603 ± 0.01 | 0.46 ± 0.01 | 0.365 ± 0.01 | 0.272 ± 0.01 | 0.217 ± 0.01 | 0.169 ± 0.01 | 0.146 ± 0.01
308.15 K | 0.933 ± 0.01 | 1.05 ± 0.011 | 0.827 ± 0.01 | 0.669 ± 0.01 | 0.522 ± 0.01 | 0.424 ± 0.01 | 0.324 ± 0.01 | 0.265 ± 0.01 | 0.212 ± 0.01 | 0.185 ± 0.01
313.15 K | 1.01 ± 0.01 | 1.122 ± 0.011 | 0.897 ± 0.01 | 0.741 ± 0.01 | 0.59 ± 0.01 | 0.487 ± 0.01 | 0.383 ± 0.01 | 0.319 ± 0.01 | 0.262 ± 0.01 | 0.231 ± 0.01
318.15 K | 1.08 ± 0.011 | 1.2 ± 0.012 | 0.971 ± 0.01 | 0.817 ± 0.01 | 0.662 ± 0.01 | 0.556 ± 0.01 | 0.448 ± 0.01 | 0.379 ± 0.01 | 0.319 ± 0.01 | 0.285 ± 0.01
323.15 K | 1.16 ± 0.012 | 1.28 ± 0.013 | 1.05 ± 0.011 | 0.899 ± 0.01 | 0.741 ± 0.01 | 0.633 ± 0.01 | 0.519 ± 0.01 | 0.448 ± 0.01 | 0.384 ± 0.01 | 0.346 ± 0.01
328.15 K | 1.242 ± 0.012 | 1.36 ± 0.014 | 1.128 ± 0.011 | 0.987 ± 0.01 | 0.825 ± 0.01 | 0.714 ± 0.01 | 0.599 ± 0.01 | 0.521 ± 0.01 | 0.455 ± 0.01 | 0.414 ± 0.01
333.15 K | 1.33 ± 0.013 | 1.444 ± 0.014 | 1.21 ± 0.012 | 1.08 ± 0.011 | 0.915 ± 0.01 | 0.799 ± 0.01 | 0.686 ± 0.01 | 0.606 ± 0.01 | 0.536 ± 0.01 | 0.491 ± 0.01
338.15 K | 1.416 ± 0.014 | 1.532 ± 0.015 | 1.3 ± 0.013 | 1.18 ± 0.012 | 1.015 ± 0.01 | 0.896 ± 0.01 | 0.782 ± 0.01 | 0.695 ± 0.01 | 0.625 ± 0.01 | 0.575 ± 0.01
343.15 K | 1.508 ± 0.015 | 1.622 ± 0.016 | 1.39 ± 0.014 | 1.28 ± 0.013 | 1.115 ± 0.011 | 0.996 ± 0.01 | 0.884 ± 0.01 | 0.793 ± 0.01 | 0.719 ± 0.01 | 0.669 ± 0.01

CCCC[P+](CCCC)(CCCC)CCCC.[Br-] + O
Conditions | viscosity [mPa·s]
298.15 K, 101 kPa, x1 = 0.09759 | 10.65 ± 0.25

CC[S+](CC)CCOCCOCC[S+](CC)CC.N#C[N-]C#N.N#C[N-]C#N + CC[n+]1ccn(C)c1.N#C[N-]C#N + O=S(=O)([N-]S(=O)(=O)C(F)(F)F)C(F)(F)F.[Li+]
100 kPa, x1 = 0.2666, x2 = 0.6449
Conditions | electrical conductivity [S/m]
298 K | 0.501 ± 0.02
303 K | 0.604 ± 0.024
313 K | 0.841 ± 0.034
323 K | 1.13 ± 0.045
333 K | 1.44 ± 0.057
343 K | 1.72 ± 0.069

CC[n+]1ccn(C)c1.O=S(=O)([O-])C(F)(F)F + O + CC(=O)[O-].CC[n+]1ccn(C)c1
293.15 K, 100 kPa
Conditions | viscosity [mPa·s]
x2 = 0.337, x3 = 0.64 | 91 ± 13
x2 = 0.341, x3 = 0.612 | 87 ± 12
x2 = 0.348, x3 = 0.555 | 80 ± 11
x2 = 0.359, x3 = 0.492 | 72 ± 10

Reference: the CheMixHub ionic liquid set
